# Legend:
# Plasma = test: AUC in rat plasma at 5 mg/kg, sc; type: ADME, organism-based; design: dose 5 mg/kg, route subcutaneous; conditions: in vivo
# Brain = test: AUC in rat brain at 5 mg/kg, sc; type: ADME, organism-based; design: dose 5 mg/kg, route subcutaneous; conditions: in vivo
# [1] = Cytotoxicity against human THLE cells assessed as cell health and cell depletion; type: cell-based
smiles,measurement,setting,value
OC1(CN2CCC(COc3noc4cccc(O[C@@H]5CCOC5)c34)CC2)CCOCC1 [PF-04995274],AUC,Plasma,1760 ng·h/g
same,AUC,Brain,1790 ng·h/g
same,Activity,[1],300 µM

# — ChEMBL document CHEMBL2150913, “Novel Benzoisoxazole as Partial Agonist of the 5-HT4 Receptor: Patent Highlight” (ACS Med Chem Lett, 2012)
